Among the data in PubChem BioAssay (NCI) are TGI values, retold here.

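Where inhibition never reached the appropriate level, the endpoint shown equals the highest concentration tested. Otherwise, values were interpolated linearly from a five-concentration, 48-hour dose response in 96-well plates. TGI is the concentration that stops growth completely.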 A value given as a limit tells only on which side of the number the result lay.

Some test systems named below: DU-145 prostate; HL-60(TB) leukemia; HOP-92 NSCLC; HS 578T breast; MDA-MB-231 breast; NCI-H226 lung; NCI-H23 lung; OVCAR-3 ovarian; SK-MEL-28 melanoma; SR leukemia; UACC-257 melanoma.
What all share (assay): growth of human tumour cells (NCI), 48 h

Turning to `N#CSC#CCCC#CSC#N`, the TGI is 28.3 µM in the assay on DU-145 prostate; greater than 100 µM in the assay with HL-60(TB) leukemia; 39.5 µM in the assay on HOP-92 NSCLC; 76.2 µM in the assay on HS 578T breast; 42 µM in the assay on MDA-MB-231 breast; 58.2 µM in the assay with NCI-H226 lung. The TGI was 42.1 µM with NCI-H23 lung; 51.8 µM with OVCAR-3 ovarian; 82 µM with SK-MEL-28 melanoma; greater than 100 µM with SR leukemia; 32.2 µM in the assay on UACC-257 melanoma.
As to `O=C1SC(SCc2ccccc2)=NC12CC2c1ccccc1` (stereo unspecified), the TGI in the assay with DU-145 prostate was greater than 81 µM; in the assay on HL-60(TB) leukemia, 21.5 µM; in the assay on HOP-92 NSCLC, 53.1 µM; in the assay with HS 578T breast, 68.4 µM; with MDA-MB-231 breast it was 43.5 µM; in the assay on NCI-H226 lung, 52 µM. The TGI in the assay on NCI-H23 lung was 42 µM; in the assay on OVCAR-3 ovarian, greater than 72.7 µM; with SK-MEL-28 melanoma it was 41.5 µM; with SR leukemia, 52.5 µM; in the assay on UACC-257 melanoma, 38.5 µM.
As for `COc1ccccc1CC(=O)C(O)(C(F)(F)F)C(F)(F)F`, the TGI in the assay with DU-145 prostate, with HL-60(TB) leukemia, in the assay on HOP-92 NSCLC, with HS 578T breast, with MDA-MB-231 breast and in the assay with NCI-H226 lung was greater than 100 µM in each case. Further, the TGI with NCI-H23 lung, in the assay on OVCAR-3 ovarian, in the assay on SK-MEL-28 melanoma, in the assay with SR leukemia and with UACC-257 melanoma was greater than 100 µM in each case.
As for `CCOC(=O)CCC(NC(=O)C(N)Cc1ccc(N(CCCl)CCCl)cc1)C(=O)OCC` (stereo unspecified), the TGI with DU-145 prostate stood at 2.34 µM; in the assay on HL-60(TB) leukemia, 0.586 µM; in the assay with HOP-92 NSCLC, 1.59 µM; with HS 578T breast, 4.93 µM; in the assay on MDA-MB-231 breast, 3.94 µM; in the assay with NCI-H226 lung, 20.7 µM. The TGI in the assay with NCI-H23 lung was 1.68 µM; with OVCAR-3 ovarian it was 1.68 µM; in the assay with SK-MEL-28 melanoma, 2.18 µM; in the assay on SR leukemia, 14 µM; in the assay with UACC-257 melanoma, 5.2 µM.
In the case of `N=c1oc2ccccc2cc1C(=O)NC12CC3CC(CC(C3)C1)C2`, the TGI in the assay with DU-145 prostate is greater than 84.3 µM; with HL-60(TB) leukemia it was 30.7 µM; in the assay on HOP-92 NSCLC, greater than 100 µM; with HS 578T breast, greater than 100 µM; in the assay with MDA-MB-231 breast it was 47.7 µM; with NCI-H226 lung it was greater than 90.3 µM. The TGI with NCI-H23 lung was greater than 91.6 µM; in the assay on OVCAR-3 ovarian, 37.5 µM; with SK-MEL-28 melanoma, greater than 100 µM; in the assay on SR leukemia it was 11.4 µM; in the assay on UACC-257 melanoma, 70.9 µM.
Turning to `CCOC(=O)/C(C#N)=C/c1coc2cc(C)cc(C)c2c1=O`, the TGI in the assay on DU-145 prostate, in the assay on HL-60(TB) leukemia, in the assay with HOP-92 NSCLC, in the assay with HS 578T breast, in the assay on MDA-MB-231 breast and in the assay on NCI-H226 lung was greater than 100 µM throughout. In addition, the TGI in the assay with NCI-H23 lung, in the assay on OVCAR-3 ovarian, in the assay on SK-MEL-28 melanoma, in the assay on SR leukemia and in the assay on UACC-257 melanoma was greater than 100 µM throughout.
Take `NC(Cc1ccccc1)C(=O)NC(Cc1ccccc1)NC(=O)C(Cc1c[nH]c2ccccc12)C(=O)O` (stereo unspecified): the TGI in the assay on DU-145 prostate, with HL-60(TB) leukemia, with HOP-92 NSCLC, in the assay with HS 578T breast, in the assay with MDA-MB-231 breast and in the assay with NCI-H226 lung was greater than 100 µM throughout. Moreover, the TGI with NCI-H23 lung, in the assay on OVCAR-3 ovarian, with SK-MEL-28 melanoma, with SR leukemia and with UACC-257 melanoma was greater than 100 µM throughout.
As to `CCOC(=O)c1csc(NC(=O)CN2CCCC2)n1`, the TGI with DU-145 prostate, with HL-60(TB) leukemia, in the assay with HOP-92 NSCLC, in the assay with HS 578T breast, with MDA-MB-231 breast and in the assay on NCI-H226 lung was greater than 100 µM each time. Also, the TGI in the assay on NCI-H23 lung, in the assay on OVCAR-3 ovarian, with SK-MEL-28 melanoma, in the assay on SR leukemia and in the assay on UACC-257 melanoma was greater than 100 µM each time.
In the case of `O=C1OC(c2ccccc2)=N/C1=C\c1ccc([N+](=O)[O-])cc1`, the TGI in the assay on DU-145 prostate was greater than 100 µM; in the assay with HL-60(TB) leukemia, greater than 100 µM; in the assay on HOP-92 NSCLC it was 76.2 µM; in the assay on HS 578T breast, greater than 100 µM; with MDA-MB-231 breast it was greater than 100 µM; with NCI-H226 lung it was 18.9 µM. Moreover, the TGI in the assay with NCI-H23 lung was greater than 100 µM; in the assay on OVCAR-3 ovarian, greater than 100 µM; with SK-MEL-28 melanoma, greater than 100 µM; in the assay with SR leukemia, 79.6 µM; with UACC-257 melanoma, greater than 100 µM.
With `COc1cc2c(/C=C3/C(=O)Nc4cccc(Cl)c43)c(Cl)[nH]c2cc1C`, the TGI in the assay with DU-145 prostate was 5.66 µM; with HL-60(TB) leukemia, 4.56 µM; in the assay on HOP-92 NSCLC, 22.6 µM; in the assay with HS 578T breast it was 5.58 µM; in the assay with MDA-MB-231 breast it was 3.2 µM; with NCI-H226 lung, 7.59 µM. The TGI in the assay on NCI-H23 lung turned out to be 9.36 µM; in the assay with OVCAR-3 ovarian, 4.29 µM; in the assay with SK-MEL-28 melanoma it was 4.27 µM; in the assay on SR leukemia it was 2.95 µM; with UACC-257 melanoma it was 10.2 µM.
In the case of `O=C(O)C1C2c3ccccc3C(c3ccccc32)C1C(=O)NCC1CC1` (stereo unspecified), the TGI is greater than 100 µM in the assay with DU-145 prostate; 77.2 µM in the assay on HL-60(TB) leukemia; greater than 100 µM with HOP-92 NSCLC; greater than 100 µM with HS 578T breast; greater than 100 µM with MDA-MB-231 breast; greater than 100 µM in the assay with NCI-H226 lung. Moreover, the TGI with NCI-H23 lung was greater than 100 µM; in the assay with OVCAR-3 ovarian, greater than 100 µM; with SK-MEL-28 melanoma it was greater than 100 µM; in the assay on SR leukemia, greater than 100 µM; in the assay with UACC-257 melanoma, 70.5 µM.
